PubChem BioAssay (NCI)
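Interpolation was linear, between the two tested concentrations surrounding the appropriate level; five concentrations were tested over 48 hours in 96-well plates. Definition used: TGI = concentration required for complete inhibition of growth.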

How the values were obtained:
Test in all cases: NCI anticancer screen, dose series, 48 h
[1] = system: 786-0 renal
[2] = system: A498 renal
[3] = system: A549 NSCLC
[4] = system: ACHN renal
[5] = system: CAKI-1 renal
[6] = system: CCRF-CEM leukemia
[7] = system: COLO 205 colon
[8] = system: DLD-1 colon
[9] = system: DMS 114 small cell lung
[10] = system: DMS 273 small cell lung
[11] = system: HCC-2998 colon
[12] = system: HCT-15 colon
[13] = system: HL-60(TB) leukemia
[14] = system: HOP-18 NSCLC
[15] = system: HOP-62 NSCLC
[16] = system: HOP-92 NSCLC
[17] = system: HT29 colon
[18] = system: IGROV1 ovarian
[19] = system: K-562 leukemia
[20] = system: KM12 colon
[21] = system: KM20L2 colon
[22] = system: LOX IMVI melanoma
[23] = system: LXFL 529 NSCLC
[24] = system: M14 melanoma
[25] = system: M19-MEL melanoma
[26] = system: MALME-3M melanoma
[27] = system: MOLT-4 leukemia
[28] = system: NCI-H226 lung
[29] = system: NCI-H23 lung
[30] = system: NCI-H460 lung
[31] = system: OVCAR-3 ovarian
[32] = system: OVCAR-4 ovarian
[33] = system: OVCAR-5 ovarian
[34] = system: RPMI-8226 leukemia
[35] = system: RXF 393 renal
[36] = system: RXF-631 renal
[37] = system: SF-268 CNS
[38] = system: SF-295 CNS
[39] = system: SF-539 CNS
[40] = system: SK-MEL-2 melanoma
[41] = system: SK-MEL-28 melanoma
[42] = system: SK-MEL-5 melanoma
[43] = system: SK-OV-3 ovarian
[44] = system: SN12C renal
[45] = system: SNB-75 CNS
[46] = system: SNB-78 CNS
[47] = system: SW-620 colon
[48] = system: U251 CNS
[49] = system: UACC-257 melanoma
[50] = system: UACC-62 melanoma
[51] = system: UO-31 renal
[52] = system: XF 498 CNS
[53] = system: EKVX NSCLC
[54] = system: HCT-116 colon
[55] = system: NCI-H522 lung
[56] = system: OVCAR-8 ovarian
[57] = system: SNB-19 CNS
[58] = system: SR leukemia
[59] = system: TK-10 renal

Measured: TGI

CCOC(=O)NC1C2CC(=O)C(O2)C1OCc1ccccc1 (stereo not drawn)
not listed: [53] | [54] | [55] | [56] | [57] | [58] | [59]
> 100 µM: all other assays above

COC(=O)C(CC(=O)c1ccccc1)c1ccccc1NC(C)=O (stereo not drawn)
not listed: [10] | [35] | [40]
> 100 µM: all other assays above
